Assay results published in the supplement of paper PMC10307832.

Legend:
Assay in all cases: relative viability (nuclei count vs DMSO), 5 days (fraction); higher = more cells survive
H3255 = test system: H3255
Procedure, shortened: (§1)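 Relative viability divides the nuclei count in treated wells by that in vehicle wells. Lung cancer cell lines were seeded in 1536-well plates, dosed by pin tool the next day, and fixed and stained after 5 days in one step with final 0.05% Triton X-100, 1% formaldehyde and 1 ug/ml Hoechst. Dosing was a single drug or a fixed anchor-drug dose plus five library-drug doses (not always all listed) in √10 steps, and values are medians of duplicate plates imaged at 4×.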

NCI-H1650 = test system: NCI-H1650
Procedure, shortened: as §1

CAL-12T = test system: CAL-12T
Procedure, shortened: as §1

NCI-H2009 = test system: NCI-H2009
Procedure, shortened: as §1

NCI-H2087 = test system: NCI-H2087
Procedure, shortened: as §1

LU99A = test system: LU99A
Procedure, shortened: as §1

UMC-11 = test system: UMC-11
Procedure, shortened: as §1

SK-LU-1 = test system: SK-LU-1
Procedure, shortened: as §1

NCI-H520 = test system: NCI-H520
Procedure, shortened: as §1

SK-MES-1 = test system: SK-MES-1
Procedure, shortened: as §1

ABC-1 = test system: ABC-1
Procedure, shortened: as §1

NCI-H1734 = test system: NCI-H1734
Procedure, shortened: as §1

EKVX = test system: EKVX
Procedure, shortened: as §1

EMC-BAC-2 = test system: EMC-BAC-2
Procedure, shortened: as §1

NCI-H2085 = test system: NCI-H2085
Procedure, shortened: as §1

BEN = test system: BEN
Procedure, shortened: as §1

LC-2-ad = test system: LC-2-ad
Procedure, shortened: as §1

NCI-H661 = test system: NCI-H661
Procedure, shortened: as §1

SW 1573 = test system: SW 1573
Procedure, shortened: as §1

NCI-H1792 = test system: NCI-H1792
Procedure, shortened: as §1

NCI-H1993 = test system: NCI-H1993
Procedure, shortened: as §1

NCI-H838 = test system: NCI-H838
Procedure, shortened: as §1

NCI-H1355 = test system: NCI-H1355
Procedure, shortened: as §1

`Cc1cn(-c2cc(NC(=O)c3ccc(C)c(Nc4nccc(-c5cccnc5)n4)c3)cc(C(F)(F)F)c2)cn1` [Nilotinib] + CS(=O)(=O)CCNCc1ccc(-c2ccc3ncnc(Nc4ccc(OCc5cccc(F)c5)c(Cl)c4)c3c2)o1 [Lapatinib] (partner 2 µM) gave a relative viability (H3255; first compound 0.001 µM) of 0.259, a relative viability (H3255; first compound 0.003162 µM) of 0.224 and a relative viability (H3255; first compound 0.01 µM) of 0.236. It also gave a relative viability (H3255; first compound 0.03162 µM) of 0.24, a relative viability (H3255; first compound 0.1 µM) of 0.217 and a relative viability (NCI-H1650; first compound 0.001 µM) of 0.851. The relative viability (NCI-H1650; first compound 0.003162 µM) was 0.931, the relative viability (NCI-H1650; first compound 0.01 µM) was 0.917 and the relative viability (NCI-H1650; first compound 0.03162 µM) was 0.668. The relative viability (NCI-H1650; first compound 0.1 µM) was 0.424, the relative viability (CAL-12T; first compound 0.001 µM) was 0.729 and the relative viability (CAL-12T; first compound 0.01 µM) was 0.748. For the same compound, the relative viability (CAL-12T; first compound 0.03162 µM) was 0.839, the relative viability (CAL-12T; first compound 0.1 µM) was 0.74 and the relative viability (NCI-H2009; first compound 0.001 µM) was 0.788. For the same compound, the relative viability (NCI-H2009; first compound 0.003162 µM) was 1.1, the relative viability (NCI-H2009; first compound 0.01 µM) was 1.08 and the relative viability (NCI-H2009; first compound 0.03162 µM) was 1.01. For the same compound, the relative viability (NCI-H2009; first compound 0.1 µM) was 0.191, the relative viability (NCI-H2087; first compound 0.001 µM) was 0.62 and the relative viability (NCI-H2087; first compound 0.003162 µM) was 1.21. The relative viability (NCI-H2087; first compound 0.01 µM) was 1.17, the relative viability (NCI-H2087; first compound 0.03162 µM) was 0.686 and the relative viability (NCI-H2087; first compound 0.1 µM) was 0.289. It also gave a relative viability (LU99A; first compound 0.001 µM) of 0.954, a relative viability (LU99A; first compound 0.003162 µM) of 0.924 and a relative viability (LU99A; first compound 0.01 µM) of 0.921. The relative viability (LU99A; first compound 0.03162 µM) was 0.775, the relative viability (LU99A; first compound 0.1 µM) was 0.153 and the relative viability (UMC-11; first compound 0.001 µM) was 0.995. It also gave a relative viability (UMC-11; first compound 0.003162 µM) of 1.2, a relative viability (UMC-11; first compound 0.01 µM) of 1.27 and a relative viability (UMC-11; first compound 0.03162 µM) of 0.851. The relative viability (UMC-11; first compound 0.1 µM) was 0.255, the relative viability (SK-LU-1; first compound 0.001 µM) was 0.769 and the relative viability (SK-LU-1; first compound 0.003162 µM) was 0.855. For the same compound, the relative viability (SK-LU-1; first compound 0.01 µM) was 1.08, the relative viability (SK-LU-1; first compound 0.03162 µM) was 0.558 and the relative viability (SK-LU-1; first compound 0.1 µM) was 0.6. For the same compound, the relative viability (NCI-H520; first compound 0.001 µM) was 0.678, the relative viability (NCI-H520; first compound 0.01 µM) was 0.927 and the relative viability (NCI-H520; first compound 0.03162 µM) was 0.707. The relative viability (NCI-H520; first compound 0.1 µM) was 0.383, the relative viability (SK-MES-1; first compound 0.003162 µM) was 0.663 and the relative viability (SK-MES-1; first compound 0.01 µM) was 0.665. For the same compound, the relative viability (SK-MES-1; first compound 0.03162 µM) was 0.541, the relative viability (SK-MES-1; first compound 0.1 µM) was 0.557 and the relative viability (ABC-1; first compound 0.001 µM) was 0.925. For the same compound, the relative viability (ABC-1; first compound 0.003162 µM) was 1.09, the relative viability (ABC-1; first compound 0.01 µM) was 1.35 and the relative viability (ABC-1; first compound 0.03162 µM) was 0.955. The relative viability (ABC-1; first compound 0.1 µM) was 0.952, the relative viability (NCI-H1734; first compound 0.001 µM) was 1 and the relative viability (NCI-H1734; first compound 0.003162 µM) was 1.14. For the same compound, the relative viability (NCI-H1734; first compound 0.01 µM) was 1.27, the relative viability (NCI-H1734; first compound 0.03162 µM) was 0.808 and the relative viability (NCI-H1734; first compound 0.1 µM) was 0.517. It also gave a relative viability (EKVX; first compound 0.001 µM) of 0.211, a relative viability (EKVX; first compound 0.003162 µM) of 0.195 and a relative viability (EKVX; first compound 0.01 µM) of 0.214. It also gave a relative viability (EKVX; first compound 0.03162 µM) of 0.187, a relative viability (EKVX; first compound 0.1 µM) of 0.204 and a relative viability (EMC-BAC-2; first compound 0.001 µM) of 0.834. It also gave a relative viability (EMC-BAC-2; first compound 0.003162 µM) of 0.952, a relative viability (EMC-BAC-2; first compound 0.01 µM) of 0.924 and a relative viability (EMC-BAC-2; first compound 0.03162 µM) of 0.784. The relative viability (EMC-BAC-2; first compound 0.1 µM) was 0.606, the relative viability (NCI-H2085; first compound 0.001 µM) was 0.822 and the relative viability (NCI-H2085; first compound 0.003162 µM) was 0.817. It also gave a relative viability (NCI-H2085; first compound 0.01 µM) of 0.748, a relative viability (NCI-H2085; first compound 0.03162 µM) of 0.66 and a relative viability (NCI-H2085; first compound 0.1 µM) of 0.599. It also gave a relative viability (BEN; first compound 0.001 µM) of 0.759, a relative viability (BEN; first compound 0.003162 µM) of 0.74 and a relative viability (BEN; first compound 0.01 µM) of 0.757. It also gave a relative viability (BEN; first compound 0.03162 µM) of 0.518, a relative viability (BEN; first compound 0.1 µM) of 0.508 and a relative viability (LC-2-ad; first compound 0.001 µM) of 0.901. For the same compound, the relative viability (LC-2-ad; first compound 0.003162 µM) was 1.29, the relative viability (LC-2-ad; first compound 0.01 µM) was 1.05 and the relative viability (LC-2-ad; first compound 0.03162 µM) was 0.894. The relative viability (LC-2-ad; first compound 0.1 µM) was 0.293, the relative viability (NCI-H661; first compound 0.001 µM) was 0.446 and the relative viability (NCI-H661; first compound 0.003162 µM) was 0.445. The relative viability (NCI-H661; first compound 0.01 µM) was 0.549, the relative viability (NCI-H661; first compound 0.03162 µM) was 0.42 and the relative viability (NCI-H661; first compound 0.1 µM) was 0.436. It also gave a relative viability (SW 1573; first compound 0.003162 µM) of 1.26, a relative viability (SW 1573; first compound 0.01 µM) of 1.17 and a relative viability (SW 1573; first compound 0.03162 µM) of 1.1. The relative viability (SW 1573; first compound 0.1 µM) was 1.27, the relative viability (NCI-H1792; first compound 0.001 µM) was 0.899 and the relative viability (NCI-H1792; first compound 0.01 µM) was 1.12. For the same compound, the relative viability (NCI-H1792; first compound 0.1 µM) was 1.24, the relative viability (NCI-H1993; first compound 0.001 µM) was 0.797 and the relative viability (NCI-H1993; first compound 0.003162 µM) was 0.863. It also gave a relative viability (NCI-H1993; first compound 0.01 µM) of 0.77, a relative viability (NCI-H1993; first compound 0.03162 µM) of 0.874 and a relative viability (NCI-H1993; first compound 0.1 µM) of 0.651. It also gave a relative viability (NCI-H838; first compound 0.001 µM) of 0.927, a relative viability (NCI-H838; first compound 0.003162 µM) of 1.02 and a relative viability (NCI-H838; first compound 0.01 µM) of 0.925. For the same compound, the relative viability (NCI-H838; first compound 0.03162 µM) was 0.817, the relative viability (NCI-H838; first compound 0.1 µM) was 0.609 and the relative viability (NCI-H1355; first compound 0.001 µM) was 1.07. It also gave a relative viability (NCI-H1355; first compound 0.003162 µM) of 1.32, a relative viability (NCI-H1355; first compound 0.01 µM) of 1.2 and a relative viability (NCI-H1355; first compound 0.03162 µM) of 1.12. It also gave a relative viability (NCI-H1355; first compound 0.1 µM) of 0.401.
